According to patent publication US12589143B2, “Human anti-PD-L1 peptide vaccines and methods of their use” (priority 2019, dated 2026):
Where no end group is shown, it is not given here.

System: CT26/HER-2 carcinoma cell line
Test: CT26/HER-2 tumor challenge in immunized Balb/c mice
Assay type: in vivo
Conditions: for tumor growth inhibition: CT26/HER-2, day 16
Text: (PMID: 29337305). […] Balb/c mice 6-8 weeks old, were immunized with MVF-peptide immunogens emulsified in ISA 720 with nor-MDP three times and three weeks apart. Mice were immunized with MVF-PD-L1 vaccine constructs [PD-L1(36-53), PD-L1(50-67), PD-L1(95-112), PD-L1(130-147)] prior to tumor challenge. Blood was collected weekly and sera tested for antibody titers by ELISA. Two weeks after the third immunization (3Y), the mice were engrafted with CT26 WT tumor cells 10^5 per mouse Control mice were treated twice weekly with PBS as negative control and twice weekly with anti-mPD-L1 mAb (10F.9G2) as positive control starting 2 days after tumor challenge. Tumor growths were observed twice weekly and measured by calipers.
Vaccines were dissolved in water and emulsified in Montanide ISA 720 (1:1) and 50 μg nor-MDP (N-acetylglucosamine-3yl-acetyl-1-alanyl-d-isoglutamine). Female Balb/c mice (Charles River Laboratories) at the age of 5 to 6 week were immunized three times at 3-week intervals with 100 μg of each peptide vaccine, and 2 weeks after the third immunization, the mice were challenged s.c. with CT-26-HER2 neu tumor cells (100,000 per mouse).
Mice treated twice a week with anti-mouse PD-L1 MAb 10F.9G2 (Bio X Cell, West Lebanon, NH) 200 ug/dose was used as a positive control or purified mouse IgG from mouse sera (Sigma-Aldrich, St. Louis, Mo) as a negative control. Tumor growth was monitored for up to 21 days after challenge. During immunization, blood was drawn biweekly and used in ELISA to monitor Ab titers. The mice were euthanized at the end of treatment and tumors extracted and weighed samples of the tumors were saved for further study and for histological examination.
Two weeks after the third immunization (3Y), the mice were inoculated subcutaneously (s.c) with CT26 carcinoma cells (1×10^5 cells per mouse) and tumor formation was monitored on a daily basis afterwards. Mice treated with PBS served as negative control, and twice weekly treated mice with 200 μg/dose injections of anti-mouse PD-L1 monoclonal antibody (mAb clone 10F.9G2) served as positive control. Tumor growth was monitored daily and measured by caliper. […] PD-L1 B-cell epitope vaccines treatment had similar and significant reduction in tumor growth at day 16 post challenge as compared to negative control treatment with PBS (FIG. 19). […] Tumor sizes at various times are also shown in FIG. 20 and one-way analysis of variance (one-way ANOVA) followed by the Tukey's multiple comparisons test were used to compare data in multiple groups or data between groups.
We also analyzed the different isotypes of antibodies being generated by vaccination.
6-8 weeks old BALB/c mice (Charles River, Wilmington, MA) were used as standard animal models. Mouse CT26 colon carcinoma cell line was purchased from American Type Culture Collection Cells and were regularly cultured in RPMI1640 medium containing 10% FBS. CT26/HER2 cells were kindly provided by M. Penichet. Vaccines were dissolved in sterile water and emulsified in Montanide ISA 720 (1:1). Female Balb/c mice (Charles River Laboratories) at the age of 6-8 weeks were immunized three times at 3-week intervals with 100 μg of each peptide vaccine, and 2 weeks after the third immunization, the mice were challenged with CT26 and/or CT26/HER-2 tumor cells, which were implanted subcutaneously (s.c) on the right flank (1×10^5 per mouse). 200 μg of rat α-mouse PD-L1 mAb 10F.9G2 (Bio X Cell, West Lebanon, NH) were administered intraperitoneally (i.p.), twice weekly following tumor inoculation in the control group. Mice were monitored and scored for the formation of palpable tumors on a daily basis and sacrificed if tumors became necrotic or exceeded the predetermined size of 2,000 mm^3. Tumor volumes were measured in cubic millimeters with calipers and calculated with the following formula: A×B^2×0.5, where A is the largest diameter, and B is the widest point perpendicular to length. […]

Row | Sequence | tumor growth inhibition | levels of lesions (CT26/HER-2) | percentage of tumor growth inhibition compared to negative control (CT26/HER-2) | tumor inhibition versus PBS (CT26/HER-2, Balb/c) | survival rate (CT26/HER-2, Kaplan-Meier method) | 50% mice survival time / survival rate (CT26 HER2, compared to the other PD-L1 epitopes)
1 | KLLSLIKGVIVHRLEGVEGPSLYRCMISYGGADYKRITVK (KLLSLIKGVIVHRLEGVEGPSLYRCMISYGGADYKRITVK-NH2) [PD-L1(95)] | strongest tumor growth inhibition | – | – | – | – | –
2 | KLLSLIKGVIVHRLEGVEGPSLFVHGEEDLKVQHSSYRQR (KLLSLIKGVIVHRLEGVEGPSLFVHGEEDLKVQHSSYRQR-NH2) [PD-L1(50)] | strongest tumor growth inhibition | – | – | – | – | –
3 | KLLSLIKGVIVHRLEGVEGPSLVTSEHELTCQAEGYPKAE (KLLSLIKGVIVHRLEGVEGPSLVTSEHELTCQAEGYPKAE-NH2) [PD-L1(130)] | strongest tumor growth inhibition | lowest levels of lesions | Significant higher percentage of tumor growth inhibition | superior tumor growth inhibition | highest survival rate | better survival rate
4 | KLLSLIKGVIVHRLEGVEGPSLLIVYWEMEDKNIIQFVHG (KLLSLIKGVIVHRLEGVEGPSLLIVYWEMEDKNIIQFVHG-NH2) [PD-L1(36)] | strongest tumor growth inhibition | – | – | – | – | –
